{"source": "patent US20190169134A1", "about": "“NOVEL CLASS OF QUINOLONE HETEROCYCLIC AROMATIC MOLECULES FOR CANCER TREATMENT” (RenoTarget Therapeutics, Inc., priority 2016, published 2019)", "key": {"[1]": {"biological_target": "T1, SRC (Homo sapiens, UniProt P12931)", "T1 construct": "made in house; host or cells: cell-free, rabbit reticulocyte lysate", "assay": "KinaseSeeker competition binding assay", "procedure": "(§1) Compound Reno647 was profiled against the following panel of kinases at 2 μM using the KinaseSeeker™ assay: ABL1, AKT1, AKT2, AKT3, ALK, AURKA, AXL, BRAF, BTK, CDK2, CDK5, CDK7, CDK8, CSF1R, DDR1, EGFR del L747-P753 InsS, EGFR (L861Q), EGFR (G719S), EGFR, EGFR (L858R), EPHA2, EPHB2, FGFR3, FLT1/VEGFR1, FLT2/FGFR1, FLT3, FLT4/VEGFR3, GSK-3a, HER2, IGF1R, INSR, KIT, LIMK1, MET, MLK2/MAP3K10, RPS6KA5/MSK1, MUSK, p38a/MAPK12, PDGFRA, PDGFRB, PDK1, RET, RIPK2, RPS6KA1/RSK1, SRC, TEC, TESK1, TRKB, VEGFR2, and YES 1.\n(§2) KinaseSeeker is a homogeneous competition binding assay where the displacement of an active site dependent probe by an inhibitor is measured by a change in luminescence signal (see FIG. 7). Luminescence readout translates into a highly sensitive and robust assay with low background and minimal interference from test compounds.\n(§3) (Jester, Cox et al. 2010; Jester, Gaj et al. 2012): 10 mM stock of compound Reno647 was diluted in DMSO to a concentration of 50 μM. Prior to initiating a profiling campaign, the compound was evaluated for false positive against split-luciferase. The compound was then screened in duplicate against each of the kinases. For kinase assays, each Cfluc-Kinase was translated along with Fos-Nfluc using a cell-free system (rabbit reticulocyte lysate) at 30° C. for 90 min. A 24 μL aliquot of this lysate containing either 1 μL of DMSO (for no-inhibitor control) or compound solution in DMSO (2 LM final concentration) was incubated for 30 minutes at room temperature followed by 1 hour in the presence of a kinase specific probe. A 80 μL of luciferin assay reagent was added to each solution and luminescence was immediately measured on a luminometer.\n(§4) The % Inhibition and % Activity Remaining were calculated using the following equations:\n(§5) % inhibition=(ALUcontrol−ALUsample)×100\n(§6) % activity=100−% inhibition."}, "[2]": {"biological_target": "T2, IGF1R (Homo sapiens, UniProt P08069)", "T2 construct": "made in house; host or cells: cell-free, rabbit reticulocyte lysate", "assay": "KinaseSeeker competition binding assay", "procedure": "as §1, §2, §3, §4, §5, §6"}, "[3]": {"biological_target": "T3, AURKA (Homo sapiens, UniProt O14965)", "T3 construct": "made in house; host or cells: cell-free system (rabbit reticulocyte lysate)", "T3 sequence (O14965 whole entry)": "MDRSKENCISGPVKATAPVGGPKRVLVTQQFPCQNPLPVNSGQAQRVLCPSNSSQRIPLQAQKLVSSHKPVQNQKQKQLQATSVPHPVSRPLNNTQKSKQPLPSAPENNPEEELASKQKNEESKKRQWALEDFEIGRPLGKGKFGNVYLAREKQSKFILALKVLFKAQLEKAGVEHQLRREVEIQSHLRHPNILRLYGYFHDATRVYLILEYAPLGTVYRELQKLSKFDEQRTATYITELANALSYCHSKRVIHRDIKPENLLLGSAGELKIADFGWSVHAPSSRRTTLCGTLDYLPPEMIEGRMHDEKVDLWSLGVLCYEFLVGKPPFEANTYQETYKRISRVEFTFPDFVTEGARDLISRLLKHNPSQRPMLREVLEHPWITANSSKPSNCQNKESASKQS", "assay": "KinaseSeeker competition binding assay", "procedure": "as §1, §2, §3, §4, §5, §6"}, "[4]": {"biological_target": "T4, EPHA2 (Homo sapiens, UniProt P29317)", "T4 construct": "made in house; host or cells: cell-free system (rabbit reticulocyte lysate)", "assay": "KinaseSeeker competition binding assay", "procedure": "as §1, §2, §3, §4, §5, §6"}, "[5]": {"biological_target": "T5, AXL (Homo sapiens, UniProt P30530)", "T5 construct": "made in house; host or cells: cell-free system (rabbit reticulocyte lysate)", "assay": "KinaseSeeker competition binding assay", "procedure": "as §1, §2, §3, §4, §5, §6"}, "[6]": {"biological_target": "T6, RIPK2 (Homo sapiens, UniProt O43353)", "T6 construct": "made in house; host or cells: cell-free, rabbit reticulocyte lysate", "T6 sequence (O43353 whole entry)": "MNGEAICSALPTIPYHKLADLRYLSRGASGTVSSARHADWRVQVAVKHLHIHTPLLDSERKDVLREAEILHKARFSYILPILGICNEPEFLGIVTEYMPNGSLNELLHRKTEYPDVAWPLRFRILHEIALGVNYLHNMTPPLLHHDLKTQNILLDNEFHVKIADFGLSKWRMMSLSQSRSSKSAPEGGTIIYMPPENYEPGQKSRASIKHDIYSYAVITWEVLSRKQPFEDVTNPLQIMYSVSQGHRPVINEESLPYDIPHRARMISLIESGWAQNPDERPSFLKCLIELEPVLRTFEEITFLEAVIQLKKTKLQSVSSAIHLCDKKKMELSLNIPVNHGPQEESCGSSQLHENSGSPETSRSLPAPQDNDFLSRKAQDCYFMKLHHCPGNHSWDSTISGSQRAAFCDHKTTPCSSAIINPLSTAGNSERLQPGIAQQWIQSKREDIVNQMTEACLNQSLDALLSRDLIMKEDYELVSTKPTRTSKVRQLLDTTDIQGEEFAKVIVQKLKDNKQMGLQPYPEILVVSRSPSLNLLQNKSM", "assay": "KinaseSeeker competition binding assay", "procedure": "as §1, §2, §3, §4, §5, §6"}, "[7]": {"biological_target": "T7, MUSK (Homo sapiens, UniProt O15146)", "T7 construct": "made in house; host or cells: cell-free, rabbit reticulocyte lysate", "T7 sequence (O15146 24-869)": "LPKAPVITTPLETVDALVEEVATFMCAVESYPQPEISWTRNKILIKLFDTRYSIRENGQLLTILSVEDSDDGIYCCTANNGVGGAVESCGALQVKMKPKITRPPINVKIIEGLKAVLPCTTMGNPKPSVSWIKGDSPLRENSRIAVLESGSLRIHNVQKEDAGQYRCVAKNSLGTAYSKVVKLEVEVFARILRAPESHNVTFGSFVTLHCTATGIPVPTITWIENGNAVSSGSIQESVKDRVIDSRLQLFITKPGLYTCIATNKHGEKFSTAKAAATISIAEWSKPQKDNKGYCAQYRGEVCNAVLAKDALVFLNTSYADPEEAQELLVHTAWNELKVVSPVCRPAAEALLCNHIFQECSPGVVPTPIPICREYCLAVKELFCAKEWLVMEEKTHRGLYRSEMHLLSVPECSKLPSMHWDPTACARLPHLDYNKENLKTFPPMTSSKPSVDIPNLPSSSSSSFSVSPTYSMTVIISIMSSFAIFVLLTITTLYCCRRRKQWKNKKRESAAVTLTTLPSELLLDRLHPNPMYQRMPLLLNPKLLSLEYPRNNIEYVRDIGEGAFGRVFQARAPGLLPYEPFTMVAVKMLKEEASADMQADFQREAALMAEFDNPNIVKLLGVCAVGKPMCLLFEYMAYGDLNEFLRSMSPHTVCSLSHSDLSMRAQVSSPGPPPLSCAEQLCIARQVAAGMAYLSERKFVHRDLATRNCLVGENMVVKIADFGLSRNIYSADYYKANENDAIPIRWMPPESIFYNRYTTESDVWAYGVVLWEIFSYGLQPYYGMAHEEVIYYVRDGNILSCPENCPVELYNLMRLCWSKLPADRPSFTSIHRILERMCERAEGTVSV", "assay": "KinaseSeeker competition binding assay", "procedure": "as §1, §2, §3, §4, §5, §6"}, "[8]": {"biological_target": "T8, FLT2 (Homo sapiens, UniProt P11362)", "T8 construct": "made in house; host or cells: cell-free system (rabbit reticulocyte lysate)", "T8 sequence (P11362 22-822)": "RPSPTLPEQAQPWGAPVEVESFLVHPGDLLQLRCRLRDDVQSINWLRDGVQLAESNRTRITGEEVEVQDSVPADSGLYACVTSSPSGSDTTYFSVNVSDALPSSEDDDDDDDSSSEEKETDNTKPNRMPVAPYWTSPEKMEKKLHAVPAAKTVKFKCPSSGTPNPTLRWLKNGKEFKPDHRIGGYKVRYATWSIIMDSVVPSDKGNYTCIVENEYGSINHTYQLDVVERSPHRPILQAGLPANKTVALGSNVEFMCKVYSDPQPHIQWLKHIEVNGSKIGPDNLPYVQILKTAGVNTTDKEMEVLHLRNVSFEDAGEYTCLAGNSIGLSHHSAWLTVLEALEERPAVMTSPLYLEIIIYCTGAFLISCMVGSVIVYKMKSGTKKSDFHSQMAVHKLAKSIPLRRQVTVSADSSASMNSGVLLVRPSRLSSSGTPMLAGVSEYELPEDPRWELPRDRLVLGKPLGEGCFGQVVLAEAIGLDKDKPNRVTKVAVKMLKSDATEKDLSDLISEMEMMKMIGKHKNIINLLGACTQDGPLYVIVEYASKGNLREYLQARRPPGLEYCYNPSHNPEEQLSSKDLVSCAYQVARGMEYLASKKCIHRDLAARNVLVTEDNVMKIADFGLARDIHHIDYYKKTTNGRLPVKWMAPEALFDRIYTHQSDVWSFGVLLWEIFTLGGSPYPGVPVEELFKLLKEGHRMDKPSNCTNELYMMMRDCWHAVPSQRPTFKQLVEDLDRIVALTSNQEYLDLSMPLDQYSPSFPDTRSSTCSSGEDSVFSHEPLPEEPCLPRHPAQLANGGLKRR", "assay": "KinaseSeeker competition binding assay", "procedure": "as §1, §2, §3, §4, §5, §6"}, "[9]": {"biological_target": "T9, VEGFR2 (Homo sapiens, UniProt P35968)", "T9 construct": "made in house; host or cells: cell-free, rabbit reticulocyte lysate", "assay": "KinaseSeeker competition binding assay", "procedure": "as §1, §2, §3, §4, §5, §6"}, "[10]": {"biological_target": "T10, YES1 (Homo sapiens, UniProt P07947)", "T10 construct": "made in house; host or cells: cell-free, rabbit reticulocyte lysate", "assay": "KinaseSeeker competition binding assay", "procedure": "as §1, §2, §3, §4, §5, §6"}, "[11]": {"biological_target": "T11, INSR (Homo sapiens, UniProt P06213)", "T11 construct": "made in house; host or cells: cell-free, rabbit reticulocyte lysate", "assay": "KinaseSeeker competition binding assay", "procedure": "as §1, §2, §3, §4, §5, §6"}, "[12]": {"biological_target": "T12, FLT1 (Homo sapiens, UniProt P17948)", "T12 construct": "made in house; host or cells: cell-free system (rabbit reticulocyte lysate)", "assay": "KinaseSeeker competition binding assay", "procedure": "as §1, §2, §3, §4, §5, §6"}, "[13]": {"biological_target": "T13, MET (Homo sapiens, UniProt P08581)", "T13 construct": "made in house; host or cells: cell-free, rabbit reticulocyte lysate", "assay": "KinaseSeeker competition binding assay", "procedure": "as §1, §2, §3, §4, §5, §6"}, "[14]": {"biological_target": "T14, CDK5 (Homo sapiens, UniProt Q00535)", "T14 construct": "made in house; host or cells: cell-free system (rabbit reticulocyte lysate)", "T14 sequence (Q00535 whole entry)": "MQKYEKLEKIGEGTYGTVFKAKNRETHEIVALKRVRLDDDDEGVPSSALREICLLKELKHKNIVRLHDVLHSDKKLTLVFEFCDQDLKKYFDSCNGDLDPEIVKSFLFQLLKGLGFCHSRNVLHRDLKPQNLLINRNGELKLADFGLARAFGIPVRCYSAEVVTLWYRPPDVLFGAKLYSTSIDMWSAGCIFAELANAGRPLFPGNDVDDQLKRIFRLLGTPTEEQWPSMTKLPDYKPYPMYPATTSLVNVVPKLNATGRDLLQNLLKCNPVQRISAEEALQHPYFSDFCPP", "assay": "KinaseSeeker competition binding assay", "procedure": "as §1, §2, §3, §4, §5, §6"}, "[15]": {"biological_target": "T15, MLK2 (Homo sapiens, UniProt Q02779)", "T15 construct": "made in house; host or cells: cell-free, rabbit reticulocyte lysate", "T15 sequence (Q02779 whole entry)": "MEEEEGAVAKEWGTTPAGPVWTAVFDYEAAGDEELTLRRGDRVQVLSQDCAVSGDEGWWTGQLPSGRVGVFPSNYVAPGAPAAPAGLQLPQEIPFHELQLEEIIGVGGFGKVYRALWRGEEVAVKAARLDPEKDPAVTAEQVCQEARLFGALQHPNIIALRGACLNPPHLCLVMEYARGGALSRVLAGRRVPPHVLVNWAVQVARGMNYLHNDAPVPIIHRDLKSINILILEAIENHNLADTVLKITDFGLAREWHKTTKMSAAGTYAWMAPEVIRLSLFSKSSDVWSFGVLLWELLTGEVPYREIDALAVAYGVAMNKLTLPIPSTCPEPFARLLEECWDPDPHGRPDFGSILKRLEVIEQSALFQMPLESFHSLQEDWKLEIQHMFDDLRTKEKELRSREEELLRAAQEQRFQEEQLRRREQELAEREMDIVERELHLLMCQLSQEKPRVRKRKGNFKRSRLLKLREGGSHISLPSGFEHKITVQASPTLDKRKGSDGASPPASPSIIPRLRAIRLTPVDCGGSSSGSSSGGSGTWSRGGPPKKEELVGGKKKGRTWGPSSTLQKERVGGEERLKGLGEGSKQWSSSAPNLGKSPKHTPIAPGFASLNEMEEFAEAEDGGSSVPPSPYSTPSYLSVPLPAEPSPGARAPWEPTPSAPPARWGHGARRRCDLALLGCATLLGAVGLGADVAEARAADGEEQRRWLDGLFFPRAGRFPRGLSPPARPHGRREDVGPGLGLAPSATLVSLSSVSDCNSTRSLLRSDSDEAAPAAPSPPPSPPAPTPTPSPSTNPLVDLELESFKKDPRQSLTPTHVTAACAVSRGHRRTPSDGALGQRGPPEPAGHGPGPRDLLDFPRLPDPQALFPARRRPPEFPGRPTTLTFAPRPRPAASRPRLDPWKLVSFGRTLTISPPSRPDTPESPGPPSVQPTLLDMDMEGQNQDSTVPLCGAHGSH", "assay": "KinaseSeeker competition binding assay", "procedure": "as §1, §2, §3, §4, §5, §6"}, "[16]": {"biological_target": "T16, CSF1R (Homo sapiens, UniProt P07333)", "T16 construct": "made in house; host or cells: cell-free system (rabbit reticulocyte lysate)", "T16 sequence (P07333 20-972)": "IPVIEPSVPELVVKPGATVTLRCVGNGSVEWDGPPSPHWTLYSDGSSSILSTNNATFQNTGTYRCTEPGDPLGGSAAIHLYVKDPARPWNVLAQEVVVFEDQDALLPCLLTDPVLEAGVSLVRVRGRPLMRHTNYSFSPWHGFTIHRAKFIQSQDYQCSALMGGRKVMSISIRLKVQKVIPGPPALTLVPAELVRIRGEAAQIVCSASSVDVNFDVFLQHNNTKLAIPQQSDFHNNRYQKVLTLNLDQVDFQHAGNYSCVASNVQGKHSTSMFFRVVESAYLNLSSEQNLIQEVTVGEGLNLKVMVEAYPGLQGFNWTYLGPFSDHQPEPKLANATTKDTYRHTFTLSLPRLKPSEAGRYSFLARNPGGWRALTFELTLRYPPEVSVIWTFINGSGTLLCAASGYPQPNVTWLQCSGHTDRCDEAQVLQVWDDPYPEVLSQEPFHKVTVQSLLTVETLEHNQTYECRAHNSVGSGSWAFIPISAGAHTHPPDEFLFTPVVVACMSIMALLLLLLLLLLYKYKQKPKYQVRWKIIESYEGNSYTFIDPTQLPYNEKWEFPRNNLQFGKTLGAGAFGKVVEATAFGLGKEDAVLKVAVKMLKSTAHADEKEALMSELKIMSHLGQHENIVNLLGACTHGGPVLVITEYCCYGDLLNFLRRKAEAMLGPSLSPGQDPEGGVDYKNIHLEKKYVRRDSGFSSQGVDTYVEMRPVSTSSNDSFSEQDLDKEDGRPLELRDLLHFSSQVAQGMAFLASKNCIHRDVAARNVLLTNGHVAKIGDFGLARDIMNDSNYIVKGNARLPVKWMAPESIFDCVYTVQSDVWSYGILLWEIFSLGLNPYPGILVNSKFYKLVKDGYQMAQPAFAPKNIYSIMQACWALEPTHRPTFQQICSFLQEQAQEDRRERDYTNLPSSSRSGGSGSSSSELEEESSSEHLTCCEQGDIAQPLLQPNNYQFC", "assay": "KinaseSeeker competition binding assay", "procedure": "as §1, §2, §3, §4, §5, §6"}, "[17]": {"system": "HCC827-P", "assay": "qRT-PCR expression of Caspase 3, Caspase 9 and p21", "format": "cell-based, human", "conditions": "24 h", "procedure": "FIG. 10 depicts the effect of Reno647 on expressions of Caspase 3, Caspase 9 and p21 in HCC827-P and on Box, Bcl2, p53 and p21 in HCC827-OR16 cells. […] Total cellular RNA was extracted and cDNA was prepared followed by qRT-PCR using specific probes as described in the section of Materials and Methods. Tgene ΔCt value was normalized for GAPDH by calculating ΔCt=Ctgene−CtGAPDH per sample.\nHCC827 P or other indicated cells at exponential growth phase were treated with indicated concentrations of compounds for 24 hours. Total cellular RNA was prepared from lysed tumor cells using an RNA Purification kit (ThermoFisher Scientific). The first-strand of cDNA was synthesized using a High Capacity cDNA reverse transcription kit (ThermoFisher Scientific) in PTC-100 Peltier Thermal Cycler PCR. The resultant cDNA (0.5-1 μL) was used in a 10 μl reaction by using Taqman Universal PCR Master Mix (ThermoFisher Scientific). The pre-designed primers and probe were purchased from Life Technologies and used for qPCR. Human GAPDH was used as an internal control. qPCR was performed using Applied Biosystems StepOne and StepOnePlus Real-Time PCR Systems according manufacturer's instructions. An initial PCR denaturation step was performed at 95° C. for 20 seconds. The general cycling stage for qPCR were as follows: denaturation at 95° C. for 1 second, annealing and extension at 60° C. for 20 seconds, repeat for 40 cycles. Tgene ΔCt value was normalized for GAPDH by calculating ΔCt=Ctgene−CtGAPDH per sample."}}}
{"compound": "C#Cc1cccc(Nc2ncnc3cc(OCCOC)c(NC(=O)c4ccc(F)c([N+](=O)[O-])c4)cc23)c1", "note": "[Reno647, 4-Fluoro-N-[4-(3-ethynyl-phenylamino)-7-(2-methoxy-ethoxy)-quinazolin-6-yl]-3-nitro-benzamide]", "values": [{"measurement": "remaining binding at 2 µM", "setting": "[1]", "value": 84.9, "unit": "%"}, {"measurement": "remaining binding at 2 µM", "setting": "[2]", "value": 95.5, "unit": "%"}, {"measurement": "remaining binding at 2 µM", "setting": "[3]", "value": 100, "unit": "%"}, {"measurement": "remaining binding at 2 µM", "setting": "[4]", "value": 100, "unit": "%"}, {"measurement": "remaining binding at 2 µM", "setting": "[5]", "value": 73.2, "unit": "%"}, {"measurement": "remaining binding at 2 µM", "setting": "[6]", "value": "~41", "unit": "%"}, {"measurement": "remaining binding at 2 µM", "setting": "[7]", "value": 91.8, "unit": "%"}, {"measurement": "remaining binding at 2 µM", "setting": "[8]", "value": 51.7, "unit": "%"}, {"measurement": "remaining binding at 2 µM", "setting": "[9]", "value": 92.8, "unit": "%"}, {"measurement": "remaining binding at 2 µM", "setting": "[10]", "value": 87.1, "unit": "%"}, {"measurement": "remaining binding at 2 µM", "setting": "[11]", "value": 84.6, "unit": "%"}, {"measurement": "remaining binding at 2 µM", "setting": "[12]", "value": 80.5, "unit": "%"}, {"measurement": "remaining binding at 2 µM", "setting": "[13]", "value": 100, "unit": "%"}, {"measurement": "remaining binding at 2 µM", "setting": "[14]", "value": 99.5, "unit": "%"}, {"measurement": "remaining binding at 2 µM", "setting": "[15]", "value": 99.7, "unit": "%"}, {"measurement": "remaining binding at 2 µM", "setting": "[16]", "value": 97.6, "unit": "%"}, {"measurement": "p21 expression", "setting": "[17]; q-RT-PCR", "value": "significant induction"}, {"measurement": "Caspase 3 expression", "setting": "[17]; qRT-PCR", "value": "moderate increase"}, {"measurement": "Caspase 9 expression", "setting": "[17]; qRT-PCR", "value": "significant and concentration-dependent induction"}]}
